Results as given in patent US20260146045A1, “COMPOSITIONS AND USES THEREOF” (Solve Therapeutics, Inc., priority 2022, published 2026).

System: SKBR3, a breast cancer cell line
Assay: in vitro cytotoxicity assay (CellTiter-Glo viability)
Assay type: cell-based
Conditions: Homo sapiens, SK-BR-3, SKBR3 cells, 72 hours at 37° C., luminometer
Protocol: The ability of compounds to inhibit cell growth was measured using in vitro cytotoxicity assay.
Cells were cultured in log phase growth and split into 96-well plates. Each cell-line was plated at a slightly different concentration but ranged from 5×10^3 to 50x 10+ cells/well. Cells, in duplicate, were incubated with 3-fold serial dilution of a particular immunoconjugate starting at 3000 or 1000 nanomolar (3000, 1000, 333, 111, 37, 12.3, 4.1, 1.37, 0.46, 0.15 nanomolar) for 72 hours at 37° C. and 5% CO2. After treatment the cells were incubated with an equal volume of CellTiter-Glo® reagent (Promega Inc.) for 15 minutes at room temperature, and viability was determined by a luminometer.

Row | Structure (SMILES) | EC50
1 | CC[C@@]1(O)C(=O)OCc2c1cc1n(c2=O)Cc2c-1nc1ccc(O)cc1c2CNC(=O)CN [Compound 13] | 1.05 µM
2 | CC[C@@]1(O)C(=O)OCc2c1cc1n(c2=O)Cc2c-1nc1cc(F)ccc1c2CNC(=O)CO [Compound 8] | 0.0056 µM
3 | CC[C@@]1(O)C(=O)OCc2c1cc1n(c2=O)Cc2c-1nc1ccc(O)cc1c2CNC(=O)CO [Compound 14] | 0.516 µM
4 | CC[C@@]1(O)C(=O)OCc2c1cc1n(c2=O)Cc2c-1nc1cc(F)ccc1c2CNC(=O)CN [Compound 7] | 0.089 µM
